# Data published in patent EP4744648A1, “LIPOPEPTIDE-CONTAINING FAT-DISSOLVING PRODUCT, AND PREPARATION METHOD THEREFOR AND USE THEREOF” (Bloomage Biotechnology Corporation Limited, priority 2023, dated 2024).
# Where two headings read alike, the source gives them in different places.
# Experiments:
# Kunming mice [1] = system: Kunming mice
# Procedure: 6-week-old Kunming mice (weighing 20-30 g) were used as the model. A total of 200 µL of different drugs was injected subcutaneously at multiple sites with multiple needles into the left inguinal region of each mouse. The experimental groups were set as follows: • 1) Negative control group (n = 3): 200 µL of sterile normal saline; • 2) 1% sodium deoxycholate group (n = 3): 200 µL of 1% sodium deoxycholate normal saline solution; • 3) 2% sodium deoxycholate group (n = 3): 200 µL of 2% sodium deoxycholate normal saline solution; • 4) 0.5% surfactin HXRZ group (n = 3): 200 µL of 0.5% surfactin HXRZ normal saline solution; • 5) 1% surfactin HXRZ group (n = 3): 200 µL of 1% surfactin HXRZ normal saline solution; • 6) 2% surfactin HXRZ group (n = 3): 200 µL of 2% surfactin HXRZ normal saline solution;
# Administration was performed once every 7 days. Ulceration at the administration site of each mouse was observed throughout the administration period. On day 21 of the experiment, all mice were sacrificed and dissected.
# [2] = system: Mouse adipocyte cell line 3T3-F442A; assay: In vitro cytotoxicity test: relative growth rate of cells by CCK-8; type: cell-based; conditions: for relative growth rate: X±SD
# Procedure: Mouse adipocyte cell line 3T3-F442A in the logarithmic growth phase was seeded into a 96-well plate at a density of 1×10^5 cells/mL, with 100 µL per well. The culture medium consisted of a basal culture medium supplemented with 10% fetal bovine serum. The seeded cells were incubated conventionally in a carbon dioxide incubator at 37°C and 5% CO2 for 24 h.
# The solution was freshly prepared before use.
# After routine incubation for 24 h, the old culture medium was discarded, and then 100 µL of sample solution was added to replace it in the experimental group. An equal volume of serum-free culture medium was added to the normal control group. Each concentration was set up with at least three replicate wells.
# After another incubation for 24 h, the relative growth rate of cells was detected by CCK-8. The culture medium was discarded, 100 µL of CCK-8 diluted 10-fold with the serum-free medium was added to each well. The plate was incubated in a cell incubator for another 2 h. The absorbance was determined using a microplate reader at a wavelength of 450 nm. The relative growth rate (RGR) is a ratio of the absorbance of the experimental group to the absorbance of the normal control group.
# 3T3-F442A mouse adipocytes in the logarithmic growth phase were seeded into a 96-well plate at a density of 1 × 10^5 cells/mL, with 100 µL per well. After incubation for 24 h, the culture medium was replaced with 100 µL of culture medium containing different concentrations of samples. An equal volume of serum-free culture medium was added to the blank control group, and the incubation was continued for another 24 h. The relative growth rate of cells was determined by CCK-8. The blank control was set as 100%, the relative growth rate and half inhibitory concentration of each group were calculated.
# [3] = system: transgenic obese (ob/ob) mice; conditions: for degradation of adipose tissue (H-E sections, FIG. 6): Example 5, 200 µL, one mouse
# Procedure: 6-week-old transgenic obese (ob/ob) mice were used as the animal model. Different drugs were injected into the adipose pads of the left buttock. The mice were totally divided into three groups with 7-10 mice per group, as specified below. • 1) Negative control group: injected with 200 µL of sterile normal saline; • 2) 1% sodium deoxycholate group: injected with 200 µL of sterile normal saline solution containing 1% sodium deoxycholate; • 3) 0.1% surfactin HXRZ group: injected with 200 µL of sterile normal saline solution containing 0.1% surfactin HXRZ.
# The day of the first administration was defined as Day 1 of the experiment. Additional administrations were performed on Day 3 and Day 5, respectively. The general condition and administration sites of the mice were observed regularly throughout the experiment. On Day 21 of the experiment, the mice were sacrificed and dissected. The adipose tissue of the left buttock was isolated, fixed immediately in adipose tissue fixative, and then embedded in paraffin. The adipose tissue was stained by hematoxylin and eosin staining for pathological examination, followed by observation and analysis under an optical microscope.
# Specifically, 6-week-old transgenic obese (ob/ob) mice were used as the animal model, with one mouse per group. 200 µL each of 0.5% and 1% surfactin HXRZ normal saline solutions (test samples) were injected into the adipose pads of the left buttock, respectively. The day of the first administration was defined as Day 1 of the experiment. Additional administrations were performed on Day 3 and Day 5, respectively. The general condition and administration sites of the mice were observed regularly throughout the experiment. On Day 21 of the experiment, the mice were sacrificed and dissected. The adipose tissue of the left buttock of the mice was isolated, fixed immediately in adipose tissue fixative, and then embedded in paraffin. The adipose tissue was stained by hematoxylin and eosin staining for pathological examination, followed by observation and analysis under an optical microscope.
# [4] = Surface tension at serial dilutions (CMC value determination), automatic interfacial tensiometer; type: physicochemical
# Procedure: A 0.1% surfactin HXRZ solution and a sodium deoxycholate solution were separately prepared using purified water, followed by serial dilution to obtain different gradient concentrations. The surface tensions at different concentrations were determined respectively via a JZ-200A automatic interfacial tensiometer. Table 1 CMC value determination results
# Kunming mice [5] = conditions: for Adipocyte density (n/mm^2): day 42, M±SEM
# Procedure: In this example, 6-week-old Kunming mice (20-30 g) were used as the model. A total of 200 µL of different drugs was injected subcutaneously at multiple sites with multiple needles into the left inguinal region of each mouse. The experimental groups were set as follows. • 1) Negative control group (n = 9): 200 µL of sterile normal saline; • 2) Sodium deoxycholate group (n = 9): 200 µL of 1% sodium deoxycholate sterile normal saline solution; and • 3) Surfactin HXRZ group (n = 9): 200 µL of 1% surfactin HXRZ sterile normal saline solution.
# On day 42 of the experiment, the mice were sacrificed and dissected. The left inguinal adipose tissue was harvested, fixed immediately in adipose tissue fixative and then embedded in paraffin. […] The adipocyte density was then calculated.
# Statistical analysis was performed by using ulceration as an indicator of severe local inflammation and subcutaneous nodules and induration as indicators of mild local inflammation.
# Female Kunming mice = assay: Animal experiment comparing surfactin-C14 and surfactin-C15: subcutaneous injection in right inguinal region, four administrations; conditions: for Mean adipocyte area (x±SEM, mm^2) / Mean adipocyte density (x±SEM, n/mm^2): H-E sections
# Procedure: Female Kunming mice (aged 7-8 weeks, weighing 25.55-33.76 g) were taken, ranked in ascending order of body weight, and divided into groups of 7-8 mice using a Latin method. The tails of mice in each cage were marked and distinguished with an oil-based permanent marker.
# Based on the injection dose of the positive drug reported in the literature, the subcutaneous injection dose for this test was determined to be 10 mg/mL at a volume of 200 µL. Subcutaneous injection was performed using a four-needle mesotherapy tip (34 G, 1.5 mm long, inner diameter 0.6 mm). Administration was performed sequentially from top to bottom along the right inguinal region. Administration was performed once every 14 days for a total of four administrations.
# During the administration period, food intake, water consumption and general activity of all experimental animals in each group were observed daily under identical feeding conditions and housing environments. Daily observation was performed on each mouse to check for ulceration, induration and other lesions at the administration site. 14 days after the second administration, two mice from each group were sacrificed and dissected. All the remaining mice were sacrificed and dissected 14 days after the fourth administration.
# In this example, changes in adipose tissue at the administration sites of experimental mice were statistically analyzed. Specifically, the adipose tissue was excised from the inguinal region on the inoculated side (right side), weighed and recorded. The adipose tissue-to-body weight percentage of the inoculated side for each mouse was then calculated using the formula: [(weight of adipose tissue on the inoculated side/body weight of the mouse) × 100%].
# Further statistical analysis was performed on adipocyte density and adipocyte area. The adipose tissue from the inoculated side was immersed in adipose tissue fixative and sent for hematoxylin-eosin (H-E) staining. After imaging was completed, all measurements were standardized in millimeters. The area of adipose tissue in each image was measured, and the number of adipocytes in each image was counted. The area of a single adipocyte was calculated as: adipocyte area = total adipose tissue area/adipocyte number; adipocyte density = adipocyte number/total adipose tissue area.
# [6] = Example 8, 0.005 mg/mL, 24 h, 3T3-F442A
# [7] = Example 8, 0.01 mg/mL, 24 h, 3T3-F442A
# [8] = Example 8, 0.02 mg/mL, 24 h, 3T3-F442A
# [9] = Example 8, 0.04 mg/mL, 24 h, 3T3-F442A
# [10] = Example 8, 0.08 mg/mL, 24 h, 3T3-F442A
# [11] = 1 mg/mL (low-dose), four administrations
# [12] = 5 mg/mL (medium-dose), four administrations
# [13] = 10 mg/mL, four administrations once every 14 days, right inguinal
substance,measurement,setting,value
surfactin [Surfactin HXRZ],"degradation of inguinal adipose tissue at the administration sites (dissection, FIG. 9)","Kunming mice [1]; 0.5 %, treated side vs untreated side",a certain degree of degradation
same,degree of ulceration at the administration sites compared with sodium deoxycholate,"Kunming mice [1]; mouse, in vivo",milder than that in the 2% sodium deoxycholate group
same,degree of ulceration compared with sodium deoxycholate,"Kunming mice [1]; mouse, in vivo",milder than that in the 1% sodium deoxycholate group
same,healing of ulceration,"Kunming mice [1]; mouse, in vivo",healed completely
same,healing of ulcers,"Kunming mice [1]; mouse, in vivo",failed to heal
same,ulceration at the injection sites,"Kunming mice [1]; mouse, in vivo, sc",no ulceration occurred at the injection sites
same,treatment time at which adipocytes were completely lysed,[2]; 0.08 mg/mL,24 h
same,"cell morphology of adipocytes (inverted microscope, FIG. 4)","[2]; 0.08 mg/mL, 24 h",nearly all cells died
same,half maximal inhibitory concentrations IC50,"[2]; 3T3-F442A adipocytes, 24 h, calculated from Table 2 curves",27.1 µg/mL
same,Relative growth rate (%),"[2]; Example 2, 0.005 mg/mL, 24 h, 3T3-F442A",101.2±15.71%
same,Relative growth rate (%),"[2]; Example 2, 0.01 mg/mL, 24 h, 3T3-F442A",90.23±4.30%
same,Relative growth rate (%),"[2]; Example 2, 0.02 mg/mL, 24 h, 3T3-F442A",67.56±3.81%
same,Relative growth rate (%),"[2]; Example 2, 0.04 mg/mL, 24 h, 3T3-F442A",19.34±1.43%
same,Relative growth rate (%),"[2]; Example 2, 0.08 mg/mL, 24 h, 3T3-F442A",10.74±0.51%
same,Relative growth rate (%),"[2]; Example 3, 0.02 mg/mL, 0.5 h",75.21±4.86%
same,Relative growth rate (%),"[2]; Example 3, 0.02 mg/mL, 4 h",61.07±5.11%
same,Relative growth rate (%),"[2]; Example 3, 0.02 mg/mL, 24 h",67.56±0.09%
same,Relative growth rate (%),"[2]; Example 3, 0.04 mg/mL, 0.5 h",59.48±3.47%
same,Relative growth rate (%),"[2]; Example 3, 0.04 mg/mL, 4 h",37.95±1.99%
same,Relative growth rate (%),"[2]; Example 3, 0.04 mg/mL, 24 h",19.34±0.03%
same,Relative growth rate (%),"[2]; Example 3, 0.08 mg/mL, 0.5 h",32.81±6.73%
same,Relative growth rate (%),"[2]; Example 3, 0.08 mg/mL, 4 h",24.38±3.37%
same,Relative growth rate (%),"[2]; Example 3, 0.08 mg/mL, 24 h",10.74±0.01%
same,relative growth rate,[2]; [6],"103.67±1.59 b, c %"
same,relative growth rate,[2]; [7],"67.49±5.46 a, b, c %"
same,relative growth rate,[2]; [8],"20.76±5.32 a, b, c %"
same,relative growth rate,[2]; [9],9.99±0.38 b %
same,relative growth rate,[2]; [10],"9.01±0.06 b, c %"
same,"degradation of adipose tissue at the administration sites (H-E sections, FIG. 5)","[3]; Example 4, 0.1 %, 200 µL in normal saline, left buttock, Days 1, 3, 5, Day 21",induced the degradation of adipose tissue at the administration sites
same,"degradation of adipose tissue (H-E sections, FIG. 6)","[3]; 0.5 %, left buttock, Days 1, 3, 5, Day 21",induced the degradation of adipose tissue in mice
same,"degradation of adipose tissue (H-E sections, FIG. 6)","[3]; 1 %, left buttock, Days 1, 3, 5, Day 21",induced the degradation of adipose tissue in mice
same,induration / ulceration at the administration sites,"[3]; mouse, in vivo",No such phenomena were observed
same,Surface tension value,[4]; solution concentration 0.00078125 % in purified water,39.08 mN/m
same,Surface tension value,[4]; solution concentration 0.0015625 % in purified water,38.38 mN/m
same,Surface tension value,[4]; solution concentration 0.003125 % in purified water,37.64 mN/m
same,Surface tension value,[4]; solution concentration 0.00625 % in purified water,37.16 mN/m
same,Surface tension value,[4]; solution concentration 0.0125 % in purified water,36.28 mN/m
same,Surface tension value,[4]; solution concentration 0.025 % in purified water,35.64 mN/m
same,Surface tension value,[4]; solution concentration 0.05 % in purified water,33.43 mN/m
same,Surface tension value,"[4]; solution concentration 0.05 % in purified water, listed as surfactin HXRZ",33 mN/m
same,Surface tension value,[4]; solution concentration 0.1 % in purified water,33.69 mN/m
same,Adipose tissue weight,"Kunming mice [5]; 1 %, 200 µL s.c. left inguinal, once every 14 days, day 42, n = 9",0.2007 ± 0.0365 g
same,Adipocyte density (n/mm^2),"Kunming mice [5]; 1 %, 200 µL s.c.",676.94±51.326 n/mm^2
same,Adipocyte density (n/mm^2),"Kunming mice [5]; 1 %, 200 µL s.c., listed as surfactin HXRZ",676.94±51.326 n/mm^2
same,Fat index (%),"Kunming mice [5]; 1 %, 200 µL s.c., day 42, treated-side inguinal adipose weight/body weight × 100%",0.50±0.10 %
same,Ulceration,"Kunming mice [5]; mouse, in vivo",0
same,ulceration at the administration sites over the administration cycle,"Kunming mice [5]; mouse, in vivo",no ulceration occurred at the administration sites
surfactin-C13 [HXRZ-A],relative growth rate,[2]; [6],97.66±3.27 c %
same,relative growth rate,[2]; [7],"97.00±3.13 b, c %"
same,relative growth rate,[2]; [8],"34.74±3.25 #, b, c %"
same,relative growth rate,[2]; [9],9.83±0.36 %
same,relative growth rate,[2]; [10],"9.27±0.24 b, c %"
surfactin-C14 [HXRZ-B],relative growth rate,[2]; [6],"89.75±7.04 #, c %"
same,relative growth rate,[2]; [7],"46.22±4.26 #, a %"
same,relative growth rate,[2]; [8],"14.74±0.48 #, a %"
same,relative growth rate,[2]; [9],"9.02±0.37 #, c %"
same,relative growth rate,[2]; [10],"8.11±0.24 #, a, c %"
same,"Mean adipocyte area (x±SEM, mm^2)",Female Kunming mice; 1 mg/mL (low-dose),0.00284±0.000267 mm^2
same,"Mean adipocyte density (x±SEM, n/mm^2)",Female Kunming mice; 1 mg/mL (low-dose),418.7156±85.9688 n/mm^2
same,"Mean wet adipose tissue weight (x±SEM, unit: g)",Female Kunming mice; [11],0.326 ± 0.106 g
same,"Mean wet adipose tissue weight/body weight percentage (x±SEM, %)",Female Kunming mice; [11],0.76±0.21%
same,"Mean adipocyte area (x±SEM, mm^2)",Female Kunming mice; 5 mg/mL (medium-dose),0.003554±0.00047 mm^2
same,"Mean adipocyte density (x±SEM, n/mm^2)",Female Kunming mice; 5 mg/mL (medium-dose),313.2046±85.5687 n/mm^2
same,"Mean wet adipose tissue weight (x±SEM, unit: g)",Female Kunming mice; [12],0.225 ± 0.039 g
same,"Mean wet adipose tissue weight/body weight percentage (x±SEM, %)",Female Kunming mice; [12],0.56±0.08 %
same,"Mean wet adipose tissue weight/body weight percentage (x±SEM, %)","Female Kunming mice; 10 mg/mL, four administrations",0.58±0.07 %
same,"Mean wet adipose tissue weight (x±SEM, unit: g)",Female Kunming mice; [13],0.232 ± 0.032 g
same,"Mean adipocyte area (x±SEM, mm^2)","Female Kunming mice; 10 mg/mL, four administrations",0.003177±0.000284 mm^2
same,"Mean adipocyte density (x±SEM, n/mm^2)","Female Kunming mice; 10 mg/mL, four administrations",340.3195±31.7463 n/mm^2
surfactin-C15 [HXRZ-C],relative growth rate,[2]; [6],"76.06±3.24 #, a, b %"
same,relative growth rate,[2]; [7],"43.53±3.35 #, a %"
same,relative growth rate,[2]; [8],"17.61±1.76 #, a %"
same,relative growth rate,[2]; [9],10.29±0.38 b %
same,relative growth rate,[2]; [10],"10.31±0.48 *,#,a,b %"
same,IC50 against adipocytes relative to HXRZ-A,"[2]; Example 8, 3T3-F442A, 24 h",approximately half that of HXRZ-A
same,"Mean adipocyte area (x±SEM, mm^2)",Female Kunming mice; 1 mg/mL (low-dose),0.003222±0.000161 mm^2
same,"Mean adipocyte density (x±SEM, n/mm^2)",Female Kunming mice; 1 mg/mL (low-dose),355.3684±57.4571 n/mm^2
same,"Mean wet adipose tissue weight (x±SEM, unit: g)",Female Kunming mice; [11],0.198 ± 0.030 g
same,"Mean wet adipose tissue weight/body weight percentage (x±SEM, %)",Female Kunming mice; [11],0.51±0.08 %
same,"Mean adipocyte area (x±SEM, mm^2)",Female Kunming mice; 5 mg/mL (medium-dose),0.003297±0.000274 mm^2
same,"Mean adipocyte density (x±SEM, n/mm^2)",Female Kunming mice; 5 mg/mL (medium-dose),328.9026±63.1322 n/mm^2
same,"Mean wet adipose tissue weight (x±SEM, unit: g)",Female Kunming mice; [12],0.209 ± 0.021 g
same,"Mean wet adipose tissue weight/body weight percentage (x±SEM, %)",Female Kunming mice; [12],0.53±0.05 %
same,"Mean wet adipose tissue weight/body weight percentage (x±SEM, %)","Female Kunming mice; 10 mg/mL, four administrations",0.48±0.02 %
same,"Mean wet adipose tissue weight (x±SEM, unit: g)",Female Kunming mice; [13],0.188 ± 0.011 g
same,"Mean adipocyte area (x±SEM, mm^2)","Female Kunming mice; 10 mg/mL, four administrations",0.004632±0.000253 mm^2
same,"Mean adipocyte density (x±SEM, n/mm^2)","Female Kunming mice; 10 mg/mL, four administrations",251.3400±31.0087 n/mm^2
